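Interpolation was linear, between the two tested concentrations surrounding the appropriate level; five concentrations were tested over 48 hours in 96-well plates. GI50 is the concentration that inhibits growth by half.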 The source made the active and inactive calls. No stated cut-off is given here; in the data, active = GI50 up to about 1.1 µM and inactive = higher.
How the values were obtained:
Experiment in all cases: NCI tumour cell line growth inhibition, 48 h
TK-10 = system: TK-10
OVCAR-8 = system: OVCAR-8
DU-145 = system: DU-145
IGROV-1 = system: IGROV-1
OVCAR-5 = system: OVCAR-5
HT-29 = system: HT-29
SNB-19 = system: SNB-19
UACC-257 = system: UACC-257
HCC 2998 = system: HCC 2998
SNB-75 = system: SNB-75
KM12 = system: KM12
SF-268 = system: SF-268
NCI-H23 = system: NCI-H23
M14 = system: M14
HCT-116 = system: HCT-116
MDA-N = system: MDA-N
U-251 = system: U-251
BT-549 = system: BT-549
HOP-62 = system: HOP-62
PC-3 = system: PC-3
SN12C = system: SN12C
HOP-92 = system: HOP-92
A549 = system: A549
COLO 205 = system: COLO 205
786-0 = system: 786-0
SK-OV-3 = system: SK-OV-3
NCI-H226 = system: NCI-H226
RPMI-8226 = system: RPMI-8226
ACHN = system: ACHN
SF-539 = system: SF-539
CCRF-CEM = system: CCRF-CEM
HL-60 = system: HL-60
Hs-578T = system: Hs-578T
SK-MEL-28 = system: SK-MEL-28
UACC-62 = system: UACC-62
NCI/ADR-RES = system: NCI/ADR-RES
NCI-H460 = system: NCI-H460
MDA-MB-435 = system: MDA-MB-435
HCT-15 = system: HCT-15
K562 = system: K562
SK-MEL-5 = system: SK-MEL-5
OVCAR-3 = system: OVCAR-3
RXF 393 = system: RXF 393
SR = system: SR
SF-295 = system: SF-295
Malme-3M = system: Malme-3M
MOLT-4 = system: MOLT-4
UO-31 = system: UO-31
EKVX = system: EKVX
MCF7 = system: MCF7
A498 = system: A498
SW-620 = system: SW-620
T47D = system: T47D
CAKI-1 = system: CAKI-1
MDA-MB-231 = system: MDA-MB-231
NCI-H522 = system: NCI-H522
OVCAR-4 = system: OVCAR-4
SK-MEL-2 = system: SK-MEL-2
LOX IMVI = system: LOX IMVI

Compound: COC(=O)c1csc(-c2csc(CCNC(=O)OC(C)(C)C)n2)n1
- GI50 (TK-10): > 100 µM (inactive)
- GI50 (OVCAR-8): > 100 µM (inactive)
- GI50 (DU-145): > 100 µM (inactive)
- GI50 (IGROV-1): > 100 µM (inactive)
- GI50 (OVCAR-5): > 100 µM (inactive)
- GI50 (HT-29): > 100 µM (inactive)
- GI50 (SNB-19): > 100 µM (inactive)
- GI50 (UACC-257): > 100 µM (inactive)
- GI50 (HCC 2998): > 100 µM (inactive)
- GI50 (SNB-75): 51.8 µM (inactive)
- GI50 (KM12): > 100 µM (inactive)
- GI50 (SF-268): > 100 µM (inactive)
- GI50 (NCI-H23): > 100 µM (inactive)
- GI50 (M14): > 100 µM (inactive)
- GI50 (HCT-116): > 100 µM (inactive)
- GI50 (MDA-N): > 100 µM (inactive)
- GI50 (U-251): > 100 µM (inactive)
- GI50 (BT-549): 40.4 µM (inactive)
- GI50 (HOP-62): > 100 µM (inactive)
- GI50 (PC-3): 56.1 µM (inactive)
- GI50 (SN12C): > 100 µM (inactive)
- GI50 (HOP-92): > 100 µM (inactive)
- GI50 (A549): > 100 µM (inactive)
- GI50 (COLO 205): > 100 µM (inactive)
- GI50 (786-0): > 100 µM (inactive)
- GI50 (SK-OV-3): > 100 µM (inactive)
- GI50 (NCI-H226): > 100 µM (inactive)
- GI50 (RPMI-8226): > 100 µM (inactive)
- GI50 (ACHN): > 100 µM (inactive)
- GI50 (SF-539): > 100 µM (inactive)
- GI50 (CCRF-CEM): 43.5 µM (inactive)
- GI50 (HL-60): > 100 µM (inactive)
- GI50 (Hs-578T): > 100 µM (inactive)
- GI50 (SK-MEL-28): > 100 µM (inactive)
- GI50 (UACC-62): 59.7 µM (inactive)
- GI50 (NCI/ADR-RES): 54.3 µM (inactive)
- GI50 (NCI-H460): > 100 µM (inactive)
- GI50 (MDA-MB-435): > 100 µM (inactive)
- GI50 (HCT-15): > 100 µM
- GI50 (K562): > 100 µM (inactive)
- GI50 (SK-MEL-5): 90.6 µM (inactive)
- GI50 (OVCAR-3): > 100 µM (inactive)
- GI50 (RXF 393): > 100 µM (inactive)
- GI50 (SR): 59.7 µM (inactive)
- GI50 (SF-295): > 100 µM (inactive)
- GI50 (Malme-3M): > 100 µM (inactive)
- GI50 (MOLT-4): 42.7 µM (inactive)
- GI50 (UO-31): > 100 µM (inactive)
- GI50 (EKVX): > 100 µM (inactive)
- GI50 (MCF7): > 100 µM (inactive)
- GI50 (A498): 26.1 µM (inactive)
- GI50 (SW-620): > 100 µM (inactive)

Compound: Nc1nc(N)c2ncn(-c3ccccc3)c2n1
- GI50 (TK-10): > 100 µM (inactive)
- GI50 (OVCAR-8): > 100 µM (inactive)
- GI50 (DU-145): > 100 µM (inactive)
- GI50 (IGROV-1): 36.3 µM (inactive)
- GI50 (OVCAR-5): > 100 µM (inactive)
- GI50 (HT-29): > 100 µM (inactive)
- GI50 (HCC 2998): 48.4 µM (inactive)
- GI50 (KM12): 24.2 µM (inactive)
- GI50 (SF-268): > 100 µM (inactive)
- GI50 (NCI-H23): > 100 µM (inactive)
- GI50 (M14): > 100 µM (inactive)
- GI50 (HCT-116): > 100 µM (inactive)
- GI50 (BT-549): > 100 µM (inactive)
- GI50 (T47D): > 100 µM (inactive)
- GI50 (PC-3): > 100 µM (inactive)
- GI50 (SN12C): 88.3 µM (inactive)
- GI50 (HOP-92): > 100 µM (inactive)
- GI50 (A549): 48.9 µM (inactive)
- GI50 (SK-OV-3): > 100 µM (inactive)
- GI50 (ACHN): > 100 µM (inactive)
- GI50 (CCRF-CEM): 23.7 µM (inactive)
- GI50 (Hs-578T): 52.6 µM (inactive)
- GI50 (SK-MEL-28): > 100 µM (inactive)
- GI50 (UACC-62): 71 µM (inactive)
- GI50 (NCI/ADR-RES): > 100 µM (inactive)
- GI50 (MDA-MB-435): > 100 µM (inactive)
- GI50 (HCT-15): > 100 µM
- GI50 (OVCAR-3): 89.9 µM (inactive)
- GI50 (RXF 393): 57.9 µM (inactive)
- GI50 (SF-295): > 100 µM (inactive)
- GI50 (CAKI-1): 82.6 µM (inactive)
- GI50 (MDA-MB-231): > 100 µM (inactive)
- GI50 (MOLT-4): 29.6 µM (inactive)
- GI50 (UO-31): 68.2 µM (inactive)
- GI50 (MCF7): 63.8 µM (inactive)
- GI50 (NCI-H522): > 100 µM (inactive)
- GI50 (A498): > 100 µM (inactive)

Compound: COC(=O)[C@@H]1[C@H](O)CCC2=C(CC(=O)c3ccoc3)[C@H](C)CC[C@]21C
- GI50 (OVCAR-4): 45 µM (inactive)
- GI50 (TK-10): > 50 µM (inactive)
- GI50 (OVCAR-8): 35.8 µM (inactive)
- GI50 (IGROV-1): > 50 µM (inactive)
- GI50 (OVCAR-5): > 50 µM (inactive)
- GI50 (HT-29): 44.3 µM (inactive)
- GI50 (SNB-19): > 50 µM (inactive)
- GI50 (UACC-257): 22.9 µM (inactive)
- GI50 (HCC 2998): > 50 µM (inactive)
- GI50 (SNB-75): 16.7 µM (inactive)
- GI50 (KM12): 36.1 µM (inactive)
- GI50 (NCI-H23): 30.3 µM (inactive)
- GI50 (M14): 41.2 µM (inactive)
- GI50 (HCT-116): 22.6 µM (inactive)
- GI50 (MDA-N): 24.5 µM (inactive)
- GI50 (U-251): 41.2 µM (inactive)
- GI50 (BT-549): 18.8 µM (inactive)
- GI50 (HOP-62): > 50 µM (inactive)
- GI50 (PC-3): 23.4 µM (inactive)
- GI50 (SN12C): > 50 µM (inactive)
- GI50 (SK-MEL-2): > 50 µM (inactive)
- GI50 (HOP-92): > 50 µM (inactive)
- GI50 (A549): > 50 µM (inactive)
- GI50 (COLO 205): > 50 µM (inactive)
- GI50 (786-0): > 50 µM (inactive)
- GI50 (SK-OV-3): > 50 µM (inactive)
- GI50 (NCI-H226): 46.2 µM (inactive)
- GI50 (ACHN): > 50 µM (inactive)
- GI50 (SF-539): > 50 µM (inactive)
- GI50 (Hs-578T): > 50 µM (inactive)
- GI50 (SK-MEL-28): > 50 µM (inactive)
- GI50 (UACC-62): 25.4 µM (inactive)
- GI50 (LOX IMVI): 27.5 µM (inactive)
- GI50 (NCI/ADR-RES): 22.2 µM (inactive)
- GI50 (NCI-H460): 23.9 µM (inactive)
- GI50 (HCT-15): 46.1 µM
- GI50 (K562): 16.8 µM (inactive)
- GI50 (SK-MEL-5): 18.1 µM (inactive)
- GI50 (OVCAR-3): 26.2 µM (inactive)
- GI50 (RXF 393): 41.7 µM (inactive)
- GI50 (SF-295): 31.4 µM (inactive)
- GI50 (Malme-3M): > 50 µM (inactive)
- GI50 (CAKI-1): > 50 µM (inactive)
- GI50 (MDA-MB-231): > 50 µM (inactive)
- GI50 (UO-31): 19.5 µM (inactive)
- GI50 (EKVX): > 50 µM (inactive)
- GI50 (MCF7): 26.4 µM (inactive)
- GI50 (A498): > 50 µM (inactive)
- GI50 (SW-620): 36.9 µM (inactive)
